Among the data in patent US20070173527A1, “HISTONE DEACETYLASE INHIBITORS” (priority 2006, published 2007) are IC50 values, retold here.

The term pIC50 denotes the IC50 on a negative log10 scale, so that one unit is a factor of ten. A low value points to a high IC50.

pIC50: −log10 of the molar value.

Sequence of HDAC2 (Q92769 whole entry): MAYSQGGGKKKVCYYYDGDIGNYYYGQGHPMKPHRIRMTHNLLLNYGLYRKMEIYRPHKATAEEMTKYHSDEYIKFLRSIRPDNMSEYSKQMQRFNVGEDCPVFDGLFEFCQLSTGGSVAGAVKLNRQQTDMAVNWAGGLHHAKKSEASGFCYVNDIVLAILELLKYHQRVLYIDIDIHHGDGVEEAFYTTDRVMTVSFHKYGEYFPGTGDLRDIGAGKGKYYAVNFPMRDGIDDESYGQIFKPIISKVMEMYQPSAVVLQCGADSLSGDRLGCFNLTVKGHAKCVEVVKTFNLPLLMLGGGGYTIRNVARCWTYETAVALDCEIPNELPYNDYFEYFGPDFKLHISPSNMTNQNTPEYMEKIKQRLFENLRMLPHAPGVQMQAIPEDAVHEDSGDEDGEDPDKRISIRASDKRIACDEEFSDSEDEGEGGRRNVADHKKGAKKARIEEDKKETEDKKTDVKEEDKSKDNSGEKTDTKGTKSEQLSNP

This assay concerns the target HDAC2 (Homo sapiens, UniProt Q92769). Nature of the assay: HDAC2 fluorescence inhibition assay (tBoc-Lys(Ac)-AMC).
`Nc1ccccc1NC(=O)c1ccc(CNc2nc3ccccc3[nH]2)cc1` [Example 2, 4-((1H-benzo[d]imidazol-2-ylamino)methyl)-N-(2-aminophenyl)benzamide]: the negative logarithm of the IC50 (pIC50) was above 7.00. The same measure for `Nc1ccccc1NC(=O)c1ccc(CSc2nc3ccccc3[nH]2)cc1` [Example 3, 4-((1H-benzo[d]imidazol-2-ylthio)methyl)-N-(2-aminophenyl)benzamide]: 6.00 to 7.00; for `Nc1ccccc1NC(=O)c1ccc(COc2nc3cccnc3[nH]2)cc1` [Example 4, 4-((3H-imidazo[4,5-b]pyridin-2-yloxy)methyl)-N-(2-aminophenyl)benzamide]: 6.00 to 7.00; for `Nc1ccccc1NC(=O)c1ccc(C[S+]([O-])c2nc3ccccc3[nH]2)cc1` (centres unmarked) [Example 5, 4-((1H-benzo[d]imidazol-2-ylsulfinyl)methyl)-N-(2-aminophenyl)benzamide]: 6.00 to 7.00.

Take `Nc1ccccc1NC(=O)c1ccc(CS(=O)(=O)c2nc3ccccc3[nH]2)cc1` [Example 6, 4-((1H-benzo[d]imidazol-2-ylsulfonyl)methyl)-N-(2-aminophenyl)benzamide]: the pIC50 was 6.00 to 7.00. The same measure for `CC(C)n1c(SCc2ccc(C(=O)Nc3ccccc3N)cc2)nc2ccccc21` [Example 7, N-(2-aminophenyl)-4-((1-isopropyl-1H-benzo[d]imidazol-2-ylthio)methyl)benzamide]: above 7.00; for `Nc1ccccc1NC(=O)c1ccc(CSc2nc3ccccc3n2C2CCCCC2)cc1` [Example 8, N-(2-aminophenyl)-4-((1-cyclohexyl-1H-benzo[d]imidazol-2-ylthio)methyl)benzamide]: 6.00 to 7.00. The compound `Nc1ccccc1NC(=O)c1ccc(CSc2nc3cccnc3[nH]2)cc1` [Example 9, 4-((3H-imidazo[4,5-b]pyridin-2-ylthio)methyl)-N-(2-aminophenyl)benzamide] gave a pIC50 above 7.00. With `Nc1ccccc1NC(=O)c1ccc(CSc2nc3ccncc3[nH]2)cc1` [Example 10, 4-((3H-imidazo[4,5-c]pyridin-2-ylthio)methyl)-N-(2-aminophenyl)benzamide], the pIC50 was above 7.00. Take `Nc1ccccc1NC(=O)c1ccc(COc2nc3ccncc3[nH]2)cc1` [Example 11, 4-((3H-imidazo[4,5-c]pyridin-2-yloxy)methyl)-N-(2-aminophenyl)benzamide]: the pIC50 was 6.00 to 7.00. For `Nc1ccccc1NC(=O)c1ccc(COc2nc3cccnc3[nH]2)s1` [Example 12, 5-((3H-imidazo[4,5-b]pyridin-2-yloxy)methyl)-N-(2-aminophenyl)thiophene-2-carboxamide], the pIC50 was below 6.00.
